Data taken from paper PMC10689823, “Discovery of a Drug-like, Natural Product-Inspired DCAF11 Ligand Chemotype” (Nature Communications, 2023).

Molecular target: BRD4S-TagBFP reporter (Homo sapiens, UniProt O60885)
Test: FACS-based CRISPR/Cas9 BRD4 protein stability screen
Method: The virus containing supernatant was cleared of cellular debris by filtration through a 0.45-µm PES filter and used to transduce KBM7 BRD4-BFP reporter cells harboring a doxycycline inducible Cas9 allele at a multiplicity of infection (MOI) of 0.05 and 1,000-fold library representation. Library-transduced cells were selected with G418 (1 mg ml^−1, Gibco) for 14 days, expanded and Cas9 expression was induced with DOX (0.4 µg ml^−1, PanReac AppliChem).
Cells were washed with and stored in FACS buffer (PBS containing 5% FBS and 1 mM EDTA) at 4 °C overnight. The next day, cells were strained trough a 35 µm nylon mesh and sorted on a BD FACSAria™ Fusion (BD Biosciences) using a 85 µm nozzle. Aggregates, dead (ZombieNIR positive), Cas9-negative (GFP) and sgRNA library-negative (Thy1.1-APC) cells were excluded, and the remaining cells were sorted based on their BRD4-BFP and mCherry levels into BRD4^HIGH (10% of cells), BRD4^MID (30%) and BRD4^LOW (10%) fractions. For each sample, cells corresponding to at least 2,000-fold library representation were sorted per replicate.
Next-generation sequencing (NGS) libraries of sorted cell fractions were prepared as previously described[25]. In brief, genomic DNA was isolated by cell lysis (10 mM Tris-HCl, 150 mM NaCl, 10 mM EDTA, 0.1% SDS), proteinase K treatment (New England Biolabs) and DNAse-free RNAse digest (Thermo Fisher Scientific), followed by two rounds of phenol extraction and 2-propanol precipitation. Isolated genomic DNA was subjected to several freeze–thaw cycles before nested polymerase chain reaction (PCR) amplification of the sgRNA cassette.
Barcoded NGS libraries for each sorted population were generated using a two-step PCR protocol using AmpliTaq Gold (Invitrogen). The resulting PCR products were purified using Mag-Bind® TotalPure NGS beads (Omega Bio-tek) and amplified in a second PCR introducing the standard Illumina adapters. The final Illumina libraries were bead-purified, pooled and sequenced on a HiSeq 3500 platform (Illumina).
Screen analysis was performed as previously described[25]. Briefly, sequencing reads were quantified using the crispr-process-nf Nextflow workflow, available at https://github.com/ZuberLab/crispr-process-nf/tree/566f6d46bbcc2a3f49f51bbc96b9820f408ec4a3. For statistical analysis, we used the crispr-mageck-nf Nextflow workflow, available at https://github.com/ZuberLab/crispr-mageck-nf/tree/c75a90f670698bfa78bfd8be786d6e5d6d4fc455. To calculate gene-level enrichment, the sorted populations (BRD4^HIGH or BRD4^LOW) were compared to the BRD4^MID populations in MAGeCK (0.5.9)[46], using median normalized read counts.

Low_lfc (Gene FBXL18, Mageck_Gene level): 0.05 | Low_logP (Gene FBXL18, Mageck_Gene level): 0.07 | High_lfc (Gene FBXL19, Mageck_Gene level): -0.41 | High_logP (Gene FBXL19, Mageck_Gene level): 0 | Low_lfc (Gene FBXL19, Mageck_Gene level): 0.11 | Low_logP (Gene FBXL19, Mageck_Gene level): 0.48 | High_lfc (Gene FBXL20, Mageck_Gene level): -0.06 | High_logP (Gene FBXL20, Mageck_Gene level): 0.09 | Low_lfc (Gene FBXL20, Mageck_Gene level): -0.11 | Low_logP (Gene FBXL20, Mageck_Gene level): 0.04 | High_lfc (Gene FBXL21, Mageck_Gene level): -0.29 | High_logP (Gene FBXL21, Mageck_Gene level): 0.09 | Low_lfc (Gene FBXL21, Mageck_Gene level): -0.29 | Low_logP (Gene FBXL21, Mageck_Gene level): 0.01 | High_lfc (Gene FBXL22, Mageck_Gene level): 0.14 | High_logP (Gene FBXL22, Mageck_Gene level): 0.24 | Low_lfc (Gene FBXL22, Mageck_Gene level): 0.36 | Low_logP (Gene FBXL22, Mageck_Gene level): 0.63 | High_lfc (Gene FBXO2, Mageck_Gene level): -0.09 | High_logP (Gene FBXO2, Mageck_Gene level): 0.03 | Low_lfc (Gene FBXO2, Mageck_Gene level): 0.42 | Low_logP (Gene FBXO2, Mageck_Gene level): 1.6 | High_lfc (Gene FBXO10, Mageck_Gene level): 0.22 | High_logP (Gene FBXO10, Mageck_Gene level): 0.52 | Low_lfc (Gene FBXO10, Mageck_Gene level): -0.18 | Low_logP (Gene FBXO10, Mageck_Gene level): 0.08 | High_lfc (Gene FBXO11, Mageck_Gene level): -0.38 | High_logP (Gene FBXO11, Mageck_Gene level): 0.01 | Low_lfc (Gene FBXO11, Mageck_Gene level): -0.03 | Low_logP (Gene FBXO11, Mageck_Gene level): 0.19 | High_lfc (Gene FBXO15, Mageck_Gene level): -0.34 | High_logP (Gene FBXO15, Mageck_Gene level): 0.01 | Low_lfc (Gene FBXO15, Mageck_Gene level): -0.22 | Low_logP (Gene FBXO15, Mageck_Gene level): 0.07 | High_lfc (Gene FBXO16, Mageck_Gene level): -0.28 | High_logP (Gene FBXO16, Mageck_Gene level): 0.17 | Low_lfc (Gene FBXO16, Mageck_Gene level): -0.34 | Low_logP (Gene FBXO16, Mageck_Gene level): 0.13 | High_lfc (Gene FBXO17, Mageck_Gene level): 0.05 | High_logP (Gene FBXO17, Mageck_Gene level): 0.04 | Low_lfc (Gene FBXO17, Mageck_Gene level): -0.01 | Low_logP (Gene FBXO17, Mageck_Gene level): 0.24 | High_lfc (Gene FBXO18, Mageck_Gene level): 0.01 | High_logP (Gene FBXO18, Mageck_Gene level): 0.35 | Low_lfc (Gene FBXO18, Mageck_Gene level): -0.24 | Low_logP (Gene FBXO18, Mageck_Gene level): 0.06 | High_lfc (Gene FBXO21, Mageck_Gene level): -0.09 | High_logP (Gene FBXO21, Mageck_Gene level): 0.15 | Low_lfc (Gene FBXO21, Mageck_Gene level): 0.26 | Low_logP (Gene FBXO21, Mageck_Gene level): 0.57 | High_lfc (Gene FBXO22, Mageck_Gene level): 0.33 | High_logP (Gene FBXO22, Mageck_Gene level): 0.56 | Low_lfc (Gene FBXO22, Mageck_Gene level): 0.08 | Low_logP (Gene FBXO22, Mageck_Gene level): 0.24 | High_lfc (Gene FBXO24, Mageck_Gene level): 0.01 | High_logP (Gene FBXO24, Mageck_Gene level): 0.17 | Low_lfc (Gene FBXO24, Mageck_Gene level): 0.28 | Low_logP (Gene FBXO24, Mageck_Gene level): 0.95 | High_lfc (Gene FBXO25, Mageck_Gene level): -0.09 | High_logP (Gene FBXO25, Mageck_Gene level): 0.13 | Low_lfc (Gene FBXO25, Mageck_Gene level): -0.06 | Low_logP (Gene FBXO25, Mageck_Gene level): 1.23 | High_lfc (Gene FBXO27, Mageck_Gene level): 0.07 | High_logP (Gene FBXO27, Mageck_Gene level): 0.26 | Low_lfc (Gene FBXO27, Mageck_Gene level): 0.17 | Low_logP (Gene FBXO27, Mageck_Gene level): 0.61 | High_lfc (Gene FBXO28, Mageck_Gene level): 0.25 | High_logP (Gene FBXO28, Mageck_Gene level): 0.91 | Low_lfc (Gene FBXO28, Mageck_Gene level): -0.03 | Low_logP (Gene FBXO28, Mageck_Gene level): 0.09 | High_lfc (Gene FBXO30, Mageck_Gene level): -0.15 | High_logP (Gene FBXO30, Mageck_Gene level): 0.06 | Low_lfc (Gene FBXO30, Mageck_Gene level): 0.12 | Low_logP (Gene FBXO30, Mageck_Gene level): 0.2 | High_lfc (Gene FBXO31, Mageck_Gene level): 0.02 | High_logP (Gene FBXO31, Mageck_Gene level): 0.11 | Low_lfc (Gene FBXO31, Mageck_Gene level): 0.28 | Low_logP (Gene FBXO31, Mageck_Gene level): 0.85 | High_lfc (Gene FBXO32, Mageck_Gene level): 0.06 | High_logP (Gene FBXO32, Mageck_Gene level): 0.14 | Low_lfc (Gene FBXO32, Mageck_Gene level): 0.27 | Low_logP (Gene FBXO32, Mageck_Gene level): 0.47 | High_lfc (Gene FBXO33, Mageck_Gene level): -0.49 | High_logP (Gene FBXO33, Mageck_Gene level): 0 | Low_lfc (Gene FBXO33, Mageck_Gene level): 0.19 | Low_logP (Gene FBXO33, Mageck_Gene level): 0.87 | High_lfc (Gene FBXO34, Mageck_Gene level): 0.22 | High_logP (Gene FBXO34, Mageck_Gene level): 0.61 | Low_lfc (Gene FBXO34, Mageck_Gene level): 0.1 | Low_logP (Gene FBXO34, Mageck_Gene level): 0.25 | High_lfc (Gene FBXO36, Mageck_Gene level): -0.13 | High_logP (Gene FBXO36, Mageck_Gene level): 0.23 | Low_lfc (Gene FBXO36, Mageck_Gene level): -0.41 | Low_logP (Gene FBXO36, Mageck_Gene level): 0.06 | High_lfc (Gene FBXO38, Mageck_Gene level): -0.17 | High_logP (Gene FBXO38, Mageck_Gene level): 0.01 | Low_lfc (Gene FBXO38, Mageck_Gene level): 0.33 | Low_logP (Gene FBXO38, Mageck_Gene level): 0.72 | High_lfc (Gene FBXO39, Mageck_Gene level): 0 | High_logP (Gene FBXO39, Mageck_Gene level): 0.18 | Low_lfc (Gene FBXO39, Mageck_Gene level): 0.15 | Low_logP (Gene FBXO39, Mageck_Gene level): 0.56 | CRL substrate receptor scoring as top hit (gene required for BRD4 degradation) (KBM7 BRD4-BFP reporter cells, 9 0.5 µM, 10 1 µM, dBET6 10 nM, 6 hours): DCAF11 | High_lfc (gene FBXO3): 0.05 | High_logP (gene FBXO3): 0.25 | Low_lfc (gene FBXO3): -0.2 | Low_logP (gene FBXO3): 0.19 | High_lfc (gene FBXO4): 0.12 | High_logP (gene FBXO4): 0.38 | Low_lfc (gene FBXO4): -0.12 | Low_logP (gene FBXO4): 0.07 | High_lfc (gene FBXO5): -0.26 | High_logP (gene FBXO5): 0.37 | Low_lfc (gene FBXO5): -0.71 | Low_logP (gene FBXO5): 0.02 | High_lfc (gene FBXO6): -0.04 | High_logP (gene FBXO6): 0.23 | Low_lfc (gene FBXO6): -0.19 | Low_logP (gene FBXO6): 0.36 | High_lfc (gene FBXO7): 0.07 | High_logP (gene FBXO7): 0.57 | Low_lfc (gene FBXO7): 0.01 | Low_logP (gene FBXO7): 0.76 | High_lfc (gene FBXO8): 0.03 | High_logP (gene FBXO8): 0.11 | Low_lfc (gene FBXO8): -0.03 | Low_logP (gene FBXO8): 0.11 | High_lfc (gene FBXO9): -0.02 | High_logP (gene FBXO9): 0.04 | Low_lfc (gene FBXO9): -0.02 | Low_logP (gene FBXO9): 0.52 | High_lfc (gene FBXO40): -0.13 | High_logP (gene FBXO40): 0.02 | Low_lfc (gene FBXO40): -0.27 | Low_logP (gene FBXO40): 0.13 | High_lfc (gene FBXO41): 0.17 | High_logP (gene FBXO41): 0.26 | Low_lfc (gene FBXO41): -0.12 | Low_logP (gene FBXO41): 0.01 | High_lfc (gene FBXO42): 0.01 | High_logP (gene FBXO42): 0.18 | Low_lfc (gene FBXO42): 0.28 | Low_logP (gene FBXO42): 1.35 | High_lfc (gene FBXO43): 0.05 | High_logP (gene FBXO43): 0.29 | Low_lfc (gene FBXO43): 0.06 | Low_logP (gene FBXO43): 0.07 | High_lfc (gene FBXO44): 0 | High_logP (gene FBXO44): 0.11 | Low_lfc (gene FBXO44): 0.17 | Low_logP (gene FBXO44): 0.24 | High_lfc (gene FBXO45): 0.31 | High_logP (gene FBXO45): 0.64 | Low_lfc (gene FBXO45): -0.13 | Low_logP (gene FBXO45): 0.16 | High_lfc (gene FBXO46): 0.28 | High_logP (gene FBXO46): 0.48 | Low_lfc (gene FBXO46): 0.32 | Low_logP (gene FBXO46): 1.6 | High_lfc (gene FBXO47): -0.53 | High_logP (gene FBXO47): 0.06 | Low_lfc (gene FBXO47): -0.35 | Low_logP (gene FBXO47): 0.03 | High_lfc (gene FBXO48): -0.41 | High_logP (gene FBXO48): 0.11 | Low_lfc (gene FBXO48): 0 | Low_logP (gene FBXO48): 0.25 | High_lfc (gene FBXW2): -0.12 | High_logP (gene FBXW2): 0.08 | Low_lfc (gene FBXW2): -0.53 | Low_logP (gene FBXW2): 0.05 | High_lfc (gene FBXW4): -0.31 | High_logP (gene FBXW4): 0.02 | Low_lfc (gene FBXW4): 0.22 | Low_logP (gene FBXW4): 0.62 | High_lfc (gene FBXW5): -0.14 | High_logP (gene FBXW5): 0.16 | Low_lfc (gene FBXW5): 0.15 | Low_logP (gene FBXW5): 0.39 | High_lfc (gene FBXW7): 0.41 | High_logP (gene FBXW7): 1.48 | Low_lfc (gene FBXW7): -0.31 | Low_logP (gene FBXW7): 0.05 | High_lfc (gene FBXW8): -0.18 | High_logP (gene FBXW8): 0.19 | Low_lfc (gene FBXW8): 0.19 | Low_logP (gene FBXW8): 0.52 | High_logP (gene FBXW9): 0 | High_lfc (gene FBXW10): -0.05 | High_logP (gene FBXW10): 0.14 | Low_lfc (gene FBXW10): -0.09 | Low_logP (gene FBXW10): 0.05 | High_lfc (gene FBXW11): 0.12 | High_logP (gene FBXW11): 0.29 | Low_lfc (gene FBXW11): -0.29 | Low_logP (gene FBXW11): 0.06 | High_lfc (gene FBXW12): -0.19 | High_logP (gene FBXW12): 0.02 | Low_lfc (gene FBXW12): -0.05 | Low_logP (gene FBXW12): 0.24 | High_logP (gene FEM1A): 0.43
Compound: Cc1sc2c(c1C)C(c1ccc(Cl)cc1)=N[C@@H](CC(=O)NCCOCCOCCOCCOCCNC(=O)COc1c(Br)cc(/C=C3\C(=O)Nc4ccc(Br)cc43)cc1Br)c1nnc(C)n1-2 [Compound 9]
